Patent US10759766B2, “Certain chemical entities, compositions, and methods” (NeuPharma, Inc., priority 2011, dated 2020)

What was measured:
BRAF = BRAF (Homo sapiens (Human), UniProt P15056); experiment: Z′-LYTE kinase inhibition assay (Invitrogen), BRAF; assay type: biochemical; conditions: 1 μM compound, Z′-LYTE method; read-out: % inhibition at 1 μM against BRAF
Method: Inhibitory activities Inhibitory activities of compounds against BRAF, and BRAF V600E were measured by Invitrogen using Z′-LYTE® Method as briefly described in the following. 4× Test compounds are dissolved in 1% DMSO. […] ATP solutions are diluted to a 4×ATP working concentration in Kinase Buffer (50 mM HEPES pH 7.5, 0.01% BRIJ-35, 10 mM MgCl2, 1 mM EGTA). Reaction started by 30-second shaking of mixture consisting of 2.5 μL 4× test compound, […] and 2.5 μL 4×ATP Solution on Bar-coded Corning, low volume NBS, black 384-well plate (Corning Cat. #3676). Then the mixture was incubated for 60-minute at room temperature for the kinase reaction, followed by addition of 5 μL of a 1:1024 dilution of development reagent A and 30-second plate shake. The mixture was then incubated for another 60-minute at room temperature for development reaction. Fluorescence was read by plate reader. IC50 was calculated by plotting the concentration of compound vs the percentage of inhibition in treated wells using GraphPad Prism 5.

A375 cells = experiment: Inhibition of cancer cell growth, MTT assay, A375; assay type: cell-based; conditions: Homo sapiens, A-375, 72 h exposure
Method in brief: (§1)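 Cells grown in RPMI 1640 with 10% FBS were seeded at about 4000 cells/well, left 24 h, then exposed to compound for 72 h (1% DMSO final). MTT absorbance at 570 nm was compared with viable cells at time of addition to give growth inhibition; IC50 from concentration–inhibition plots, triplicates.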

KDR (VEGFR2) = KDR (VEGFR2) (Homo sapiens (Human), UniProt P35968); experiment: Z′-LYTE kinase inhibition assay (Invitrogen), KDR; assay type: biochemical; conditions: Z′-LYTE method; for inhibition at 1 µM: 1 μM compound, read-out: % inhibition at 1 μM against KDR; for IC50: read-out: IC50 against KDR
KDR (VEGFR2), sequence (P35968 20-1356): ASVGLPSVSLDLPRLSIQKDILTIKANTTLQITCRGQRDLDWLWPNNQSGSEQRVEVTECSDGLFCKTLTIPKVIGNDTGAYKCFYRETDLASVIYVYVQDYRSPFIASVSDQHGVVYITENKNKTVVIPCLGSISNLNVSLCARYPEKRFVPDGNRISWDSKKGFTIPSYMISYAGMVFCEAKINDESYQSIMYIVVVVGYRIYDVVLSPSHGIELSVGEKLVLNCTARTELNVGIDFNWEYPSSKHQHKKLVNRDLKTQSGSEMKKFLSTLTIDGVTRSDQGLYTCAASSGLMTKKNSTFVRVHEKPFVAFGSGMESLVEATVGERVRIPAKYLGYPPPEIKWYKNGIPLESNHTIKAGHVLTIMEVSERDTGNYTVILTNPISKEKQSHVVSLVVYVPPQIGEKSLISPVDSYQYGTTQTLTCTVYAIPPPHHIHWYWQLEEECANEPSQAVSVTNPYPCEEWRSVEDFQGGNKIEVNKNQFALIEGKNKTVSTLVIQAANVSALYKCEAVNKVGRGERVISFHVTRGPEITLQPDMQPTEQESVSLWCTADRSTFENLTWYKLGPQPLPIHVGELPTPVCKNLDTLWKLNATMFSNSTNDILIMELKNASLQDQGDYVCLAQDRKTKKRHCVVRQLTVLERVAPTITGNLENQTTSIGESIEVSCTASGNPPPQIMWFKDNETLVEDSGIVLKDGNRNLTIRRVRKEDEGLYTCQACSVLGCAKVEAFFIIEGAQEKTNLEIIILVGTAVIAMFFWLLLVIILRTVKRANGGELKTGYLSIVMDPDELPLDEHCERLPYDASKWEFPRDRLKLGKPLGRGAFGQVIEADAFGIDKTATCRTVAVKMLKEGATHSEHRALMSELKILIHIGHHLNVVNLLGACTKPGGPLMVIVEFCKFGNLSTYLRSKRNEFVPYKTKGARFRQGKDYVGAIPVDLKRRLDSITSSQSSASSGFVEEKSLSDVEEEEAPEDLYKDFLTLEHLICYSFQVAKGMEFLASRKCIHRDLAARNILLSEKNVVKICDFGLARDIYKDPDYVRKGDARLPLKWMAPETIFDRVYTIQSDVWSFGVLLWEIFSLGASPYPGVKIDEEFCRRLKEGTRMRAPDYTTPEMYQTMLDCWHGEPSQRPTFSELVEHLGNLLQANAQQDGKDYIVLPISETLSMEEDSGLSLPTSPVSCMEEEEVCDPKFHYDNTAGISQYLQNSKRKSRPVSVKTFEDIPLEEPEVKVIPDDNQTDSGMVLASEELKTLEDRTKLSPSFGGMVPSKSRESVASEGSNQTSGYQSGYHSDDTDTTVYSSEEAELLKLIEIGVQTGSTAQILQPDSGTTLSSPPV
Method in brief: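 Z′-LYTE FRET assay: 10 μL reactions with 0.5–11.7 ng KDR and 2 μM Tyr 01 peptide in 50 mM HEPES pH 7.5, 10 mM MgCl2, 1 mM EGTA, 0.01% BRIJ-35, 1 h at room temperature. Development Reagent B (1:256) added for 60 min, fluorescence read; IC50 from concentration–inhibition curves.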

A549 cells = experiment: Inhibition of cancer cell growth, MTT assay, A549; assay type: cell-based; conditions: Homo sapiens, A549, 72 h exposure
Method in brief: as §1

BRAF V600E = BRAF V600E (Homo sapiens (Human), UniProt P15056, V600E); experiment: Z′-LYTE kinase inhibition assay (Invitrogen), BRAF V600E; assay type: biochemical; conditions: Z′-LYTE method; for inhibition at 1 µM: 1 μM compound, read-out: % inhibition at 1 μM against BRAF V600E; for IC50: read-out: IC50 against BRAF V600E
BRAF V600E, sequence (P15056 whole entry V600E): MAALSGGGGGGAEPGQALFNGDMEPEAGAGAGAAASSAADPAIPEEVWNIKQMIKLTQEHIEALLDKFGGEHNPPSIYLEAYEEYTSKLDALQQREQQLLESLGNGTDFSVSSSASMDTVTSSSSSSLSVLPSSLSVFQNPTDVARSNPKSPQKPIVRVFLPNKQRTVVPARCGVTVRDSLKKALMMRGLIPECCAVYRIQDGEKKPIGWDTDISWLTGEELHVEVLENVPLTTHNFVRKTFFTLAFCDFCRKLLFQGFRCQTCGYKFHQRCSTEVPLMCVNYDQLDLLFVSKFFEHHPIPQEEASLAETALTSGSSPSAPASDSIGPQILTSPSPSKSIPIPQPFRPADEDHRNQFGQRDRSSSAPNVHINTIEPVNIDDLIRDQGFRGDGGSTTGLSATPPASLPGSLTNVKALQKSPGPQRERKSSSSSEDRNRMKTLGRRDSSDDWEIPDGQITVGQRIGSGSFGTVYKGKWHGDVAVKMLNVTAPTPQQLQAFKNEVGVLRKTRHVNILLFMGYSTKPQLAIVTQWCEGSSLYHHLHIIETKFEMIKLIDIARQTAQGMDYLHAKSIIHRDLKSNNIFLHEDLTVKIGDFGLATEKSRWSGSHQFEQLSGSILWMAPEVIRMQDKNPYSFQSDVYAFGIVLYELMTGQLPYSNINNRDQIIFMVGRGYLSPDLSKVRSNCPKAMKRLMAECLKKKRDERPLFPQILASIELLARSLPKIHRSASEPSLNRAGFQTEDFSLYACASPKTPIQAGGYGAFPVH
Method in brief: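 FRET-based Z′-LYTE peptide phosphorylation format in 50 mM HEPES pH 7.5, 0.01% BRIJ-35, 10 mM MgCl2, 1 mM EGTA with ATP. Kinase reaction 60 min at room temperature, then protease development step 60 min at room temperature before fluorescence read. IC50 from compound concentration versus percent inhibition.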

BRAF, sequence (P15056 whole entry): as the sequence (P15056 whole entry V600E) above, with E600V counted along it

Row | Structure (SMILES) | inhibition at 1 µM (BRAF) [%] | IC50 (A375 cells) [nM] | inhibition at 1 µM (KDR (VEGFR2)) [%] | IC50 (KDR (VEGFR2)) [nM] | IC50 (A549 cells) [nM] | inhibition at 1 µM (BRAF V600E) [%] | IC50 (BRAF V600E) [nM]
1 | O=C(Nc1cccc(C(=O)c2ccc3ncc(-c4cn[nH]c4)nc3c2)c1)Nc1ccc(Cl)c(C(F)(F)F)c1 [Compound C029, 1-(3-(3-(1H-pyrazol-4-yl)quinoxaline-6-carbonyl)phenyl)-3-(4-chloro-3-(trifluoromethyl)phenyl)urea] | 70 to 89 | 1000 to 5000 | > 89 | < 100 | 2000 to 5000 | > 89 | < 100
2 | O=C(Nc1cc(F)cc(C(=O)c2ccc3ncc(N4CCOCC4)nc3c2)c1)Nc1cccc(C(F)(F)F)c1 [Compound C038, 1-(3-fluoro-5-(3-morpholinoquinoxaline-6-carbonyl)phenyl)-3-(3-(trifluoromethyl)phenyl)urea] | 70 to 89 | < 1000 | 70 to 89 | < 100 | < 2000 | > 89 | < 100
3 | O=C(Nc1cccc(F)c1)Nc1cc(F)c(F)c(C(=O)c2ccc3ncc(N4CCOCC4)nc3c2)c1 [Compound C039, 1-(3,4-difluoro-5-(3-morpholinoquinoxaline-6-carbonyl)phenyl)-3-(3-fluorophenyl)urea] | 70 to 89 | 1000 to 5000 | 70 to 89 | – | 2000 to 5000 | > 89 | –
4 | O=C(Nc1cccc(C(F)(F)F)c1)Nc1cc(F)c(F)c(C(=O)c2ccc3ncc(N4CCOCC4)nc3c2)c1 [Compound C040, 1-(3,4-difluoro-5-(3-morpholinoquinoxaline-6-carbonyl)phenyl)-3-(3-(trifluoromethyl)phenyl)urea] | < 70 | < 1000 | 70 to 89 | > 100 | < 2000 | 70 to 89 | > 100

Continued, values first:

Row | inhibition at 1 µM (BRAF) [%] | IC50 (A375 cells) [nM] | inhibition at 1 µM (KDR (VEGFR2)) [%] | IC50 (KDR (VEGFR2)) [nM] | IC50 (A549 cells) [nM] | inhibition at 1 µM (BRAF V600E) [%] | IC50 (BRAF V600E) [nM] | Structure (SMILES)
5 | 70 to 89 | < 1000 | > 89 | < 100 | < 2000 | > 89 | < 100 | Cn1cc(-c2cnc3ccc(C(=O)c4cccc(NC(=O)Nc5ccc(Cl)c(C(F)(F)F)c5)c4)cc3n2)cn1 [Compound C028, 1-(4-chloro-3-(trifluoromethyl)phenyl)-3-(3-(3-(1-methyl-1H-pyrazol-4-yl)quinoxaline-6-carbonyl)phenyl)urea]
6 | < 70 | < 1000 | > 89 | < 100 | 2000 to 5000 | 70 to 89 | > 100 | O=C(Nc1ccc(F)c(C(=O)c2ccc3ncc(N4CCOCC4)nc3c2)c1)Nc1ccc(Cl)c(C(F)(F)F)c1 [Compound C030, 1-(4-chloro-3-(trifluoromethyl)phenyl)-3-(4-fluoro-3-(3-morpholinoquinoxaline-6-carbonyl)phenyl)urea]
7 | < 70 | < 1000 | 70 to 89 | – | 2000 to 5000 | 70 to 89 | – | O=C(Nc1cc(F)cc(C(=O)c2ccc3ncc(N4CCOCC4)nc3c2)c1)Nc1ccc(Cl)c(C(F)(F)F)c1 [Compound C031, 1-(4-chloro-3-(trifluoromethyl)phenyl)-3-(3-fluoro-5-(3-morpholinoquinoxaline-6-carbonyl)phenyl)urea]
8 | 70 to 89 | < 1000 | 70 to 89 | < 100 | 2000 to 5000 | > 89 | < 100 | O=C(Nc1cccc(F)c1)Nc1ccc(F)c(C(=O)c2ccc3ncc(N4CCOCC4)nc3c2)c1 [Compound C035, 1-(4-fluoro-3-(3-morpholinoquinoxaline-6-carbonyl)phenyl)-3-(3-fluorophenyl)urea]
9 | < 70 | < 1000 | > 89 | < 100 | < 2000 | 70 to 89 | < 100 | O=C(Nc1cccc(C(F)(F)F)c1)Nc1ccc(F)c(C(=O)c2ccc3ncc(N4CCOCC4)nc3c2)c1 [Compound C036, 1-(4-fluoro-3-(3-morpholinoquinoxaline-6-carbonyl)phenyl)-3-(3-(trifluoromethyl)phenyl)urea]
